According to US8242166B2, “C(10) ethyl ester and C(10) cyclopropyl ester substituted taxanes” (Florida State University Research Foundation, Inc., priority 2008, dated 2012):
“And” between values parts separate entries of the source, which are not always exact repeats. Equal values may be shown once. Read-outs that look alike come from different tables or passages of the source.

Assays:
[1] = test system: MX1 human tumor xenografts
[2] = test system: human SKMES lung carcinoma xenografts; test: SKMES xenograft study e82, i.v. q4d×4 (Example 21); type: in vivo, nude mice; conditions: 30 mg/kg i.v. q4d×4; five mice
[3] = test system: MX1 human tumor xenografts; test: MX1 xenograft study e220, i.v. q4d×4 (Example 18); conditions: for maximum group mean BW loss: on D19
SKMES lung tumors = test: SKMES xenograft study, i.v. single dose (Example 20); type: in vivo, nude mice; conditions: 30 mg/kg iv qd × 1
Experimental: This study was conducted at PRC as previously described. SKMES is a human lung cancer cell line. In the present study, compound 2 and all agents were administered as i.v. monotherapies in a single 30 mg/kg dose (qd×1). […] Control mice received this vehicle qd×1. […] The endpoint volume for tumor growth was 1,500 mm^3. The study was terminated on Day 23.

## CCC(=O)O[C@H]1C(=O)[C@@]2(C)C([C@H](OC(=O)c3ccccc3)[C@]3(O)C[C@H](OC(=O)[C@H](O)[C@@H](NC(=O)OC4CCC4)c4cccs4)C(C)=C1C3(C)C)[C@]1(OC(C)=O)CO[C@@H]1C[C@@H]2O (some centres unmarked) [Compound 19244]
[1]; 7.5 mg/kg iv qd × 1
  % TGD: −3% and −2.64%
  Median TTE: 16.72 days
  T-C: -0.45 days
  activity (logrank test): nonsignificant activities
[1]; 7.5 mg/kg iv qd × 1, n=5
  CR (complete regression): 0
  NTR (non-treatment-related death): 0
  PR (partial regression): 0
  TFS (tumor-free survivor): 0
  TR (treatment-related death): 0
[1]; 15 mg/kg iv qd × 1
  % TGD: 83% and 83.42%
  Median TTE: 31.49 days
  T-C: 14.32 days
  activity (logrank test): nonsignificant activities
[1]; 15 mg/kg iv qd × 1, n=5
  CR (complete regression): 0
  NTR (non-treatment-related death): 0
  PR (partial regression): 0
  TFS (tumor-free survivor): 0
  TR (treatment-related death): 0
[1]; 30 mg/kg iv qd × 1
  % TGD: 235% and 235.44%
  MTV (n), Day 60: 0.00 (2) mm^3
  Median TTE: 57.59 days
  T-C: 40.42 days
  activity (logrank test): significant activity
[1]; 30 mg/kg iv qd × 1, n=5
  CR (complete regression): 4
  NTR (non-treatment-related death): 0
  PR (partial regression): 1
  TFS (tumor-free survivor): 2
  TR (treatment-related death): 0
  mice survived to D60: two
  transient CRs: 2
[2]
  TFS: 3
  partial response: two
[3]; 7.5 mg/kg iv q4d × 4
  % TGD: 217.17%
  BW Nadir: −3.1% (19)
  MTV (n), Day 57: 0.00 (5) mm^3
  Median TTE: 57 days
  T-C: 39.03 days
  maximum group mean BW loss: 3.1%
[3]; 7.5 mg/kg iv q4d × 4, n=5
  CR (complete regression): 5
  NTR (non-treatment-related death): 0
  PR (partial regression): 0
  TFS (tumor-free survivor): 3
  TR (treatment-related death): 0
  transient CRs: 2
[3]; 15 mg/kg iv q4d × 4
  % TGD: 217.17%
  BW Nadir: −7.6% (19)
  MTV (n), Day 57: 0.00 (5) mm^3
  Median TTE: 57 days
  T-C: 39.03 days
  maximum group mean BW loss: 7.6%
[3]; 15 mg/kg iv q4d × 4, n=5
  CR (complete regression): 5
  NTR (non-treatment-related death): 0
  PR (partial regression): 0
  TFS (tumor-free survivor): 5
  TR (treatment-related death): 0
[3]; 30 mg/kg iv q4d × 4
  % TGD: 217.17%
  BW Nadir: −18.9% (19)
  MTV (n), Day 57: 0.00 (5) mm^3
  Median TTE: 57 days
  T-C: 39.03 days
  maximum group mean BW loss: 18.9%
[3]; 30 mg/kg iv q4d × 4, n=5
  CR (complete regression): 4
  NTR (non-treatment-related death): 0
  PR (partial regression): 1
  TFS (tumor-free survivor): 4
  TR (treatment-related death): 0
SKMES lung tumors
  % TGD: 61.94%
  MTV (n), Day 23: 352.00 (5) mm^3
  Median TTE: 23 days
  T-C: 8.8 days
SKMES lung tumors; n=5
  NTR NTRm: 0
  PR (partial regression): 0
  TFS (tumor-free survivor): 1
  TR (treatment-related death): 0

## CC(=O)O[C@@]12CO[C@@H]1C[C@H](O)[C@@]1(C)C(=O)[C@H](O)C3=C(C)[C@@H](OC(=O)[C@H](O)[C@@H](NC(=O)OC(C)(C)C)c4ccccc4)C[C@@](O)([C@@H](OC(=O)c4ccccc4)[C@H]21)C3(C)C [Docetaxel, docetaxel, reference compound]
[1]; 25 mg/kg iv qd × 1
  % TGD: 249.47%
  MTV (n), Day 60: 0.00 (3) mm^3
  Median TTE: 60 days
  T-C: 42.83 days
[1]; 25 mg/kg iv qd × 1, n=5
  CR (complete regression): 3
  NTR (non-treatment-related death): 0
  PR (partial regression): 0
  TFS (tumor-free survivor): 2
  TR (treatment-related death): 0
  mice survived to D60: Three
  transient CR: 1
[3]; 25 mg/kg iv qwk × 3
  % TGD: 217.17%
  BW Nadir: −10.9% (22)
  MTV (n), Day 57: 0.00 (5) mm^3
  Median TTE: 57 days
  T-C: 39.03 days
[3]; 25 mg/kg iv qwk × 3, n=5
  CR (complete regression): 5
  NTR (non-treatment-related death): 0
  PR (partial regression): 0
  TFS (tumor-free survivor): 5
  TR (treatment-related death): 0
SKMES lung tumors
  % TGD: 61.94%
  MTV (n), Day 23: 166.75 (4) mm^3
  Median TTE: 23 days
  T-C: 8.8 days
SKMES lung tumors; n=5
  CR (complete regression): 0
  NTR NTRm: 0
  PR (partial regression): 2
  TFS (tumor-free survivor): 0
  TR (treatment-related death): 0
